US20130096067A1, “DROSOPHILA TUMOR STEM CELL MODEL AND USES THEREOF” (priority 2011, published 2013)
Read-outs that look alike come from different tables or passages of the source. Peptide text beside a SMILES is read from it. * marks the point of attachment. Cbz = O=C(OCc1ccccc1)*

Test system: Raf-1^gof intestinal tumors
Details: for Log2 (fold) of luciferase activity relative to DMSO controls / Fold (luciferase activity relative to DMSO controls): ICCB compounds fed in vials to flies with one-day old Raf-1^gof tumors
[1] = screen of 480 ICCB compounds in vials, compounds fed to flies with one-day old Raf-1^gof tumors, assessed three days later, esg-Gal4 luciferase
[2] = screen of 480 ICCB compounds in vials, compounds fed to flies with one-day old Raf-1^gof tumors, assessed three days later, esg-Gal4 luciferase, averaged from multiple wells
[3] = assessed three days later, averaged from multiple wells
Also: test concentration or dose not given here.

Compound | Log2 (fold) (luciferase activity, log2 of the fold difference relative to DMSO controls) [1] | Fold (luciferase activity, fold difference relative to DMSO controls) [2] | Log2 (fold) of luciferase activity relative to DMSO controls (assessed three days later) | Fold (luciferase activity relative to DMSO controls) [3] [fold] | other results
CC(C)=CC[C@@H](O)C1=CC(=O)c2c(O)ccc(O)c2C1=O [Shikonin] | −0.795 | 0.576 | – | – | –
CCCCCCCCCCCCC/C=C/[C@@H](O)[C@H](CO)NCCCCCCCC [C8 CERAMINE] | −0.302 | 0.811 | – | – | –
COc1ccc(C[C@H](N)C(=O)N[C@H]2[C@@H](O)[C@H](n3cnc4c(N(C)C)ncnc43)O[C@@H]2CO)cc1 [puromycin] | – | – | 0.281 | 1.215 | –
CCCCC/C=C\CC1OC1CCCCCCCC(=O)O (centres unmarked) [LEUKOTOXIN A (9,10-EODE)] | −0.216 | 0.861 | – | – | –
CCCCC/C=C/C=C1/C(=O)C=C[C@@H]1C/C=C\CCCC(=O)O [15d-Prostaglandin J2] | – | – | 0.294 | 1.226 | –
CC(=O)N[C@@H](CSC/C=C(\C)CC/C=C(\C)CCC=C(C)C)C(=O)O | −0.664 | 0.631 | – | – | –
CCN(CC)CCCCCCCCOC(=O)c1cc(OC)c(OC)c(OC)c1 [TMB-8] | −0.325 | 0.798 | – | – | –
CC(/C=C/C(=O)NO)=C\[C@@H](C)C(=O)c1ccc(N(C)C)cc1 [trichostatin-A] | – | – | −0.109 | 0.927 | –
COC(=O)C1=C(C)NC(C)=C(C(=O)OCCN(C)Cc2ccccc2)C1c1cccc([N+](=O)[O-])c1 (centres unmarked) [NICARDIPINE] | −0.433 | 0.741 | – | – | –
CCCCCCCCCCCCCC(=O)N[C@@H](C)[C@H](O)c1ccccc1 [MAPP, L-erythro] | – | – | 0.104 | 1.075 | –
CCN(CC)CCNC(=O)c1ccc(N)cc1 [PROCAINAMIDE] | −0.346 | 0.787 | – | – | –
N#Cc1cc2c(OCC(O)CN3CCN(C(c4ccccc4)c4ccccc4)CC3)cccc2[nH]1 (centres unmarked) [SDZ-201106] | – | – | – | – | Fold (luciferase activity, fold difference relative to DMSO controls) (in vivo): 0.804; Log2 (fold) (luciferase activity, log2 of the fold difference relative to DMSO controls) (in vivo): −0.315
Nc1ccc2c3c(cccc13)C(=O)NC2=O | −0.433 | 0.741 | – | – | –
O=C[C@@H]1CCCN1C(=O)[C@@H]1CCCN1C(=O)OCc1ccccc1 [Z-prolyl-prolinal] (Cbz-Pro-Pro-aldehyde) | −0.692 | 0.619 | – | – | –
CCCCCc1cc(O)c2c(c1)OC(C)(C)C1CCC(C(=O)O)=CC21 (centres unmarked) [TETRAHYDROCANNABINOL-7-OIC ACID] | −0.240 | 0.847 | – | – | –
CC(C)(O)[C@H]1O[C@H]2CC[C@@]3(C)[C@@](O)(CC[C@H]4Cc5c([nH]c6ccccc56)[C@@]43C)C2=CC1=O [PAXILLINE] | – | – | −0.078 | 0.948 | –
N#Cc1c(-c2ccccc2)no[n+]1[O-] [Furoxan] | −0.280 | 0.823 | – | – | –
CCN(CC)CC(=O)Nc1c(C)cccc1C [LIDOCAINE] | – | – | 0.049 | 1.035 | –
c1ccc2c(Cc3c[nH]c4ccccc34)c[nH]c2c1 [DIINDOLYLMETHANE] | – | – | 0.465 | 1.381 | –
